Paper PMC7824033, “Flavones, Flavonols, and Glycosylated Derivatives—Impact on Candida albicans Growth and Virulence, Expression of CDR1 and ERG11, Cytotoxicity” (Pharmaceuticals, 2020)
In brackets after ≈: the same amount, converted by molar mass. Read-outs that look alike come from different tables or passages of the source.

Key:
in vitro = conditions: pig
Description: Preparation of PLP2 cell line was performed with freshly harvested porcine liver supplied from a local slaughter house. Tissues from the liver were washed in Hank’s balanced salt solution comprising 100 U/mL penicillin and 100 μg/mL streptomycin and split into 1 × 1 mm^3 explants. Some of the prepared explants were set in 25 cm^2 tissue flasks in Dulbecco’s modified Eagle’s medium (DMEM) with 10% fetal bovine serum (FBS), 2 mM nonessential amino acids, 100 U/mL penicillin, and […] streptomycin, and incubation was conducted at 37 °C with 5% CO2 in a humidified atmosphere. The fresh medium was added every 2 days. Cultivation of the cells was further conducted with direct observation by the phase contrast microscope every 2–3 days. Before confluence was achieved, cells were subcultured and seeded in 96-well plates at a density of 1.0 × 10^4 cells per well and cultivated in DMEM supplemented with 10% FBS, 100 U/mL penicillin, and 100 μg/mL streptomycin. Previously described Sulforhodamine B assay was used for the determination of cytotoxicity. The obtained results were defined as GI50 values corresponding to the compound concentration that inhibits 50% of the net cell growth. Ellipticine was used as a positive control.

C. albicans biofilm = conditions: cited from earlier work
C. albicans 527/14 = assay: Microdilution assay, MIC and MFC; format: cell-based; conditions: Candida albicans, C. albicans 527/14, mean ± SD of three replicates; for MFC: read-out: MFC; for MIC: read-out: MIC
From the text: (§1) C. albicans was isolated from oral cavities of patients at ENT Clinic, Clinical Hospital Centre Zvezdara, Belgrade, Serbia after obtaining informed written consent and identified by using CHROMagar plates (Biomerieux, Craponne, France). Strains were maintained on Sabouraud Dextrose Agar (Merck, Darmstadt, Germany) and are deposited at the Mycological Laboratory, Department of Plant Physiology, Institute for Biological Research “Siniša Stanković”, National Institute of Republic of Serbia, University of Belgrade. The collection of samples was approved by the Ethical Committee (Office for Human Research Protection, Zvezdara University Medical Center, Belgrade, Serbia, document issued 26 October 2016).
(§2) Microdilution assay with some modification was used for determination of minimum inhibitory (MIC) and minimum fungicidal concentrations (MFC). Yeast cultures were adjusted to 1.0 × 10^5 CFU/per well with sterile PBS (Phosphate buffered saline, pH 7.4). The 96-well microtiter plates with serially diluted flavonoids (concentration range 0.3–75 µg/mL) in liquid broth were incubated at 37 °C for 24 h. After incubation, MIC and MFC were determined. The lowest concentrations that were not inducing microscopically observed growth were considered as MIC. For microscopic determination of growth, we used inverted microscope Nikon Eclipse TS2 (Amsterdam, Netherland) and examined the fungal growth in the wells of 96-well microtiter plates compared to the control (untreated yeast cells). MFC values were determined as concentrations without visible growth after serial sub-cultivation of 10 µL of samples at 37 °C for 24 h. Ketoconazole and amphotericin B (SigmaAldrich, Darmstadt, Germany) were used as an antifungal control. The tested flavonoids were obtained from Extrasynthese, Rhone, France.

C. albicans 13/15 = assay: Microdilution assay, MIC and MFC; format: cell-based; conditions: Candida albicans, C. albicans 13/15, mean ± SD of three replicates; for MFC: read-out: MFC; for MIC: read-out: MIC
From the text: as §1, §2

C. albicans 10/15 = assay: Microdilution assay, MIC and MFC; format: cell-based; conditions: Candida albicans, C. albicans 10/15, mean ± SD of three replicates; for MFC: read-out: MFC; for MIC: read-out: MIC
From the text: as §1, §2

C. albicans 475/15 = assay: Microdilution assay, MIC and MFC; format: cell-based; conditions: Candida albicans, C. albicans 475/15, mean ± SD of three replicates; for MFC: read-out: MFC; for MIC: read-out: MIC
From the text: as §1, §2

[1] = system: C. albicans 475/15 hyphal growth; assay: Anti-hyphal forming activity; format: cell-based, Candida albicans; conditions: MIC, 4 h, YPD + 10% FBS
Description: C. albicans 475/15 cells were incubated with MIC of tested compounds in YPD + 10% FBS, at 37 °C, for 4 h. Cells were examined under microscope (Nikon Eclipse TS2, Amsterdam, Netherland) and number of cells, growing in the yeast or hyphal and germ tube formations, was determined. Assay was performed in triplicate and percentage of hyphae was determined.

Candida albicans = assay: Microdilution assay, MIC (strain not named); format: cell-based; conditions: C. albicans, this study, strain not given, read-out: minimum inhibitory concentration (MIC)
From the text: as §1, §2

C. albicans = conditions: cited from earlier work

SMILES	GI50 (in vitro) [µg/mL]	MFC (C. albicans 527/14) [µg/mL]	MIC (C. albicans 527/14) [µg/mL]	MFC (C. albicans 13/15) [µg/mL]	MIC (C. albicans 13/15) [µg/mL]	MFC (C. albicans 10/15) [µg/mL]	MIC (C. albicans 10/15) [µg/mL]	MFC (C. albicans 475/15) [µg/mL]	MIC (C. albicans 475/15) [µg/mL]	reduction of hyphal growth (words) [1]	MIC (Candida albicans) [µg/mL]	other results
O=c1c(O[C@@H]2O[C@H](CO)[C@@H](O)[C@H](O)[C@H]2O)c(-c2ccc(O)c(O)c2)oc2cc(O)cc(O)c12 [Isoquercitrin, isoquercitrin]	> 400	75 ± 2 (≈ 162 µM)	37.5 ± 1 (≈ 80.8 µM)	75 ± 2 (≈ 162 µM)	37.5 ± 2 (≈ 80.8 µM)	75 ± 2 (≈ 162 µM)	37.5 ± 2 (≈ 80.8 µM)	75 ± 2 (≈ 162 µM)	37.5 ± 1 (≈ 80.8 µM)	efficient in reduction of hyphal growth	37.5 (≈ 80.8 µM)	concentration with antibiofilm potential (C. albicans biofilm; ref 19): 200 µg/mL; reduction of hyphal growth (words) ([1]; listed as isoquercitrin): reduced; MIC (C. albicans; C. albicans ATCC 90028): 2.5 µg/mL (≈ 5.38 µM)
O=c1c(O)c(-c2ccc(O)c(O)c2)oc2cc(O)cc(O)c12 [Quercetin, quercetin]	> 400	150 ± 10 (≈ 496 µM)	75 ± 2 (≈ 248 µM)	150 ± 20 (≈ 496 µM)	75 ± 10 (≈ 248 µM)	150 ± 20 (≈ 496 µM)	75 ± 3 (≈ 248 µM)	150 ± 10 (≈ 496 µM)	75 ± 2 (≈ 248 µM)	only slight inhibition	75 (≈ 248 µM)	activity against preformed 24-h-old biofilms (C. albicans biofilm; 625 µg/mL, C. albicans ATCC 90028): inactive; SMIC (sessile cells MIC) (C. albicans biofilm; C. albicans ATCC 10231, SC 5314 and clinical isolates): ≥ 1024 µg/mL; concentration that prevented biofilm establishment (C. albicans biofilm; C. albicans NBC099): 200 µg/mL; SMIC (sessile cells MIC) (C. albicans biofilm; oral and reference isolates SC5314 and 3153A): > 200 µg/mL; MIC (C. albicans; C. albicans ATCC 10231, ref 16): 8 µg/mL (≈ 26.5 µM); MIC (C. albicans; C. albicans ATCC 10231, ref 17): 100 µg/mL (≈ 331 µM); MIC (C. albicans; clinical isolates and C. albicans 10231): > 83 µg/mL; MIC (C. albicans; clinical isolates and reference strains ATCC 10231 and SC5314): 128 to 512 µg/mL
